Literature values in paper PMC9516332 (Frontiers in Oncology, 2022).
Read-outs that look alike come from different tables or passages of the source.

Tests used:
Details in all cases: cited from earlier work
[1] = molecular target: panel of 255 wild-type kinases (Homo sapiens, UniProt P07947)
[2] = molecular target: T1, panel of 255 wild-type kinases (Homo sapiens, UniProt Q9BZL6)
T1 sequence (Q9BZL6 1-878): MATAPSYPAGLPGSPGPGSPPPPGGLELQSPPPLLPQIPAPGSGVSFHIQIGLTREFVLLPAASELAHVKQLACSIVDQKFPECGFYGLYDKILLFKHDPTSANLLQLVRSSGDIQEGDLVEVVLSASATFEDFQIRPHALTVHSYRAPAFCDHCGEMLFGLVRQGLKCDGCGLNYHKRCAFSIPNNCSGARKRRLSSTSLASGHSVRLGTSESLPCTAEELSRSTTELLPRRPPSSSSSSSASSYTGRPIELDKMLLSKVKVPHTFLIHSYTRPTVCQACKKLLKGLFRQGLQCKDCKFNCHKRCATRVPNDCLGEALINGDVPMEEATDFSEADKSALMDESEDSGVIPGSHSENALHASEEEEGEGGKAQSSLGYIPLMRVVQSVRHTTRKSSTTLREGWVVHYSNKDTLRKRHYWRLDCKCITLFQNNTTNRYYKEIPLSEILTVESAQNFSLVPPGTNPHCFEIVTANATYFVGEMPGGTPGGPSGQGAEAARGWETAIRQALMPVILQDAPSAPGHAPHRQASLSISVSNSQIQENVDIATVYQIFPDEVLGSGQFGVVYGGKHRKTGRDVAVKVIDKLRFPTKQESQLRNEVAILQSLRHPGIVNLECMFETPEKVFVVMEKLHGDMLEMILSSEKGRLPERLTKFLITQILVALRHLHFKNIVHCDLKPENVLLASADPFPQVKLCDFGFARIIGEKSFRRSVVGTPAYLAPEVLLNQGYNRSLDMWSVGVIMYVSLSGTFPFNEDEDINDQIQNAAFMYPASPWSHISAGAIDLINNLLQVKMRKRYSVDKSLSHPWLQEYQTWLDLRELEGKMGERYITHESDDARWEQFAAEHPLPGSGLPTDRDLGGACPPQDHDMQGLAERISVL

[3] = molecular target: panel of 255 wild-type kinases (Homo sapiens, UniProt P54756)
[4] = molecular target: panel of 255 wild-type kinases (Homo sapiens, UniProt Q9Y6M4)
[5] = molecular target: panel of 255 wild-type kinases (Homo sapiens, UniProt Q7KZI7)
[6] = molecular target: T2, panel of 255 wild-type kinases (Homo sapiens, UniProt Q06418)
T2 sequence (Q06418 41-890): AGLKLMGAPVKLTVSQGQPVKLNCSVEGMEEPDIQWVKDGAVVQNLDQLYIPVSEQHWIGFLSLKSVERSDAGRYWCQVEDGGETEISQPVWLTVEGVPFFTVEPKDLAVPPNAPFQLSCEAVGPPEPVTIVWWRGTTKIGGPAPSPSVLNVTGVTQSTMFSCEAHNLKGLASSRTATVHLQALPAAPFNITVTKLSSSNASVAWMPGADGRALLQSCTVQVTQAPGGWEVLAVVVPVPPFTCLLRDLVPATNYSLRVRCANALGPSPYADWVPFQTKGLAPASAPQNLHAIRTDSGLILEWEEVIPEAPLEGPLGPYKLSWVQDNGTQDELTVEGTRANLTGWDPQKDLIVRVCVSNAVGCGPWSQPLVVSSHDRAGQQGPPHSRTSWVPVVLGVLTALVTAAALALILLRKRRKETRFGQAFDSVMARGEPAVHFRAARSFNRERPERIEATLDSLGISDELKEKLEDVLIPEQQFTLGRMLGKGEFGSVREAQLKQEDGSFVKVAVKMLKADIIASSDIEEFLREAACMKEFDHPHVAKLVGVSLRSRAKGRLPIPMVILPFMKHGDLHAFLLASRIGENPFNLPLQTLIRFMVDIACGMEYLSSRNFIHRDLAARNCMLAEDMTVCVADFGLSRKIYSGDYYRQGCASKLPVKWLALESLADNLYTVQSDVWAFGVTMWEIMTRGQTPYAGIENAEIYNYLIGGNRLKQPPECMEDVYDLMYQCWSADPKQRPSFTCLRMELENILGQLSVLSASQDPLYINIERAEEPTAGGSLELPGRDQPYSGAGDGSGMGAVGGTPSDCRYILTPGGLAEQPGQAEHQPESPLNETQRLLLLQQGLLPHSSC

[7] = molecular target: panel of 255 wild-type kinases (Homo sapiens, UniProt Q15349)
[8] = molecular target: panel of 255 wild-type kinases (Homo sapiens, UniProt P54646)
[9] = molecular target: panel of 255 wild-type kinases (Homo sapiens, UniProt Q9HCP0)
[10] = molecular target: panel of 255 wild-type kinases (Homo sapiens, UniProt P49841)
[11] = kinase YES, 1 µmol/L single concentration, ref DOI: 10.1158/1535-7163.MCT-18-0877
[12] = kinase PKD2, 1 µmol/L single concentration, ref DOI: 10.1158/1535-7163.MCT-18-0877
[13] = kinase EPHA5, 1 µmol/L single concentration, ref DOI: 10.1158/1535-7163.MCT-18-0877
[14] = kinase CK1γ3, 1 µmol/L single concentration, ref DOI: 10.1158/1535-7163.MCT-18-0877
[15] = MARK2, 1 µmol/L single concentration, ref DOI: 10.1158/1535-7163.MCT-18-0877
[16] = kinase TYRO3, 1 µmol/L single concentration, ref DOI: 10.1158/1535-7163.MCT-18-0877
[17] = kinase RSK3, 1 µmol/L single concentration, ref DOI: 10.1158/1535-7163.MCT-18-0877
[18] = AMPKα2/β1/γ1 kinase assay, 1 µmol/L single concentration, ref DOI: 10.1158/1535-7163.MCT-18-0877
[19] = kinase CK1γ1, 1 µmol/L single concentration, ref DOI: 10.1158/1535-7163.MCT-18-0877
[20] = kinase GSK3β, 1 µmol/L single concentration, ref DOI: 10.1158/1535-7163.MCT-18-0877
[21] = kinase YES, 1 µmol/L single concentration, ref DOI: 10.1371/journal.pone.0092146
[22] = kinase EPHA5, 1 µmol/L single concentration, ref DOI: 10.1371/journal.pone.0092146
[23] = MARK2, 1 µmol/L single concentration, ref DOI: 10.1371/journal.pone.0092146
[24] = kinase RSK3, 1 µmol/L single concentration, ref DOI: 10.1371/journal.pone.0092146
[25] = AMPKα2/β1/γ1 kinase assay, 1 µmol/L single concentration, ref DOI: 10.1371/journal.pone.0092146
[26] = kinase CK1γ1, 1 µmol/L single concentration, ref DOI: 10.1371/journal.pone.0092146
[27] = kinase GSK3β, 1 µmol/L single concentration, ref DOI: 10.1371/journal.pone.0092146
[28] = kinase PKD2, 1 µmol/L single concentration, ref DOI: 10.1371/journal.pone.0092146

Row | SMILES | %-inhibition at 1 µmol/L, YES [1, 11] [%] | %-inhibition at 1 µmol/L, PKD2 [2, 12] [%] | %-inhibition at 1 µmol/L, EPHA5 [3, 13] [%] | %-inhibition at 1 µmol/L, CK1γ3 [4, 14] [%] | %-inhibition, MARK2 [5, 15] [%] | %-inhibition at 1 µmol/L, TYRO3 [6, 16] [%] | %-inhibition at 1 µmol/L, RSK3 [7, 17] [%] | %-inhibition AMPKα2/β1/γ1 [8, 18] [%] | %-inhibition at 1 µmol/L, CK1γ1 [9, 19] [%] | %-inhibition at 1 µmol/L, GSK3β [10, 20] [%] | %-inhibition, MARK2 [5, 23] [%] | also measured
1 | CC#CC(=O)N1CCC[C@H]1c1nc(-c2ccc(C(=O)Nc3ccccn3)cc2)c2c(N)nccn12 [acalabrutinib] | 22 | -10 | -1.17 | -15 | -9 | 3 | 1.13 | 3.5 | 0.334 | -2.39 |  | 
2 | CCc1cc2c(cc1N1CCC(N3CCOCC3)CC1)C(C)(C)c1[nH]c3cc(C#N)ccc3c1C2=O [alectinib] | 44 | -1.05 | 2.67 | 0.159 | 5.66 | 30 |  | 6 | -0.412 | 2.37 |  | 
3 | COc1cc(N2CCC(N3CCN(C)CC3)CC2)ccc1Nc1ncc(Cl)c(Nc2ccccc2P(C)(C)=O)n1 [brigatinib] |  |  |  |  |  |  |  |  |  |  |  | %-inhibition at 1 µmol/L, YES [1]: 102%; %-inhibition at 1 µmol/L, PKD2 [2]: 86%; %-inhibition at 1 µmol/L, EPHA5 [3]: 4%; %-inhibition at 1 µmol/L, CK1γ3 [4]: 0.829%; %-inhibition, MARK2 [5]: 96%; %-inhibition at 1 µmol/L, TYRO3 [6]: 27%; %-inhibition at 1 µmol/L, RSK3 [7]: 100%; %-inhibition AMPKα2/β1/γ1 [8]: 90%; %-inhibition at 1 µmol/L, CK1γ1 [9]: 1.13%; %-inhibition at 1 µmol/L, GSK3β [10]: -1.81%
4 | Cc1cc(Nc2ncc(Cl)c(Nc3ccccc3S(=O)(=O)C(C)C)n2)c(OC(C)C)cc1C1CCNCC1 [ceritinib] | 31 | 25 | 5 | 11 | 4 | 7 | 90 | 40 | 19 | -2.5 |  | 
5 | C[C@@H](Oc1cc(-c2cnn(C3CCNCC3)c2)cnc1N)c1c(Cl)ccc(F)c1Cl [crizotinib] |  |  |  |  |  |  |  |  |  |  | 26 | %-inhibition at 1 µmol/L, YES [1, 21]: 65%; %-inhibition at 1 µmol/L, EPHA5 [3, 22]: 71%; %-inhibition at 1 µmol/L, CK1γ3 ([4]; kinase CK1γ3, 1 µmol/L single concentration, ref DOI: 10.1371/journal.pone.0092146): 4%; %-inhibition at 1 µmol/L, RSK3 [7, 24]: 3.34%; %-inhibition AMPKα2/β1/γ1 [8, 25]: 27%; %-inhibition at 1 µmol/L, CK1γ1 [9, 26]: -3.52%; %-inhibition at 1 µmol/L, GSK3β [10, 27]: -2.11%
6 | CC(C)(C)c1nc(-c2cccc(NS(=O)(=O)c3c(F)cccc3F)c2F)c(-c2ccnc(N)n2)s1 [dabrafenib] |  |  |  |  |  |  |  |  |  |  | 2.85 | %-inhibition at 1 µmol/L, PKD2 [2, 28]: 82%
7 | C=CC(=O)N1CCC[C@@H](n2nc(-c3ccc(Oc4ccccc4)cc3)c3c(N)ncnc32)C1 [ibrutinib] |  | -3.2 | 26 | 4 | 2.67 | 12 | 9 | 10 | 3.68 | -4 |  | 
8 | CO[C@@H]1[C@H](N(C)C(=O)c2ccccc2)C[C@H]2O[C@]1(C)n1c3ccccc3c3c4c(c5c6ccccc6n2c5c31)C(=O)NC4 [midostaurin] | 89 |  | 8 | -1.25 |  | 31 | 98 | 90 | -0.49 |  |  | 
9 | CC(=O)Nc1cccc(-n2c(=O)n(C3CC3)c(=O)c3c(Nc4ccc(I)cc4F)n(C)c(=O)c(C)c32)c1 [trametinib] |  |  |  |  |  |  |  |  |  |  | -6 | %-inhibition at 1 µmol/L, YES [1, 21]: -1.63%; %-inhibition at 1 µmol/L, PKD2 [2, 28]: -3.28%; %-inhibition at 1 µmol/L, EPHA5 [3, 22]: -2.67%; %-inhibition at 1 µmol/L, TYRO3 ([6]; kinase TYRO3, 1 µmol/L single concentration, ref DOI: 10.1371/journal.pone.0092146): -2.65%; %-inhibition at 1 µmol/L, RSK3 [7, 24]: -5%; %-inhibition AMPKα2/β1/γ1 [8, 25]: 1.21%; %-inhibition at 1 µmol/L, CK1γ1 [9, 26]: 0.211%; %-inhibition at 1 µmol/L, GSK3β [10, 27]: -15%
